Results from patent US9005981B2, “Assays utilizing nicotinic acetylcholine receptor subunits” (priority 2008, dated 2015).
Like-named read-outs stand apart in the source and are kept apart here.

Legend:
[1] = test system: Drosophila melanogaster flies of a spinosyn-resistant strain; assay: Fly mortality screen, spinosyn-resistant flies; format: in vivo; conditions: for mortality: 100 ppm in 10% sucrose via cotton wicks, 72 hours post-treatment, spinosyn-resistant flies; for resistance of spinosyn A resistant flies compared to wild-type flies (based on LD50): dose-response data, LD50 resistant vs wild-type
Procedure: (§1) Ten adult Drosophila melanogaster flies (5 males and 5 females) of the Oregon wild-type strain and ten adult flies of a spinosyn-resistant strain were used per treatment. Two sets (of 10 flies) were set-up per treatment. Stocks of spinosyn A and a 21-butenyl-spinosyn analog were formulated at 1000 ppm in 2:1 acetone:water and then diluted to the required concentration in 10% sucrose. Vials received 500 ul of treatment (or solvent for controls) via cotton wicks (approximately ¼ inch) and flies were added to each vial and capped with a cotton plug. Flies were monitored over 72 hours post-treatment while being maintained at room-temperature with a 12:12 light:dark cycle.
(§2) In addition, the spinosyn A resistant flies were >100-fold resistant (based on LD50) to the new class of spinosyns, represented by the 21-butenyl spinosyns.

[2] = test system: Drosophila melanogaster flies of the Oregon wild-type strain; assay: Fly mortality screen, wild-type flies; format: in vivo; conditions: 100 ppm in 10% sucrose via cotton wicks, 72 hours post-treatment
Procedure: as §1, §2

[3] = test system: D α6 and C. elegans ric3 expressed in D.Mel-2 cells; format: binding, Drosophila melanogaster
Procedure: D.Mel-2 cells were seeded into 75 cm^2 flasks at 1.9×10^7 cells/flask in Drosophila SFM containing antibiotic/antimicotic and incubated overnight at 27° C. The transfection mix was prepared in 12×75 mm polystyrene tubes by mixing 1630 μl sterile water, 40 μg pIB/V5-HisA/ric3, 40 μg pIB/V5-HisA/30D and 250 μl CellFectin. The reagents were mixed gently and incubated at room temp for 15 minutes. While the transfection mix was incubating, the cells were washed with 10 ml fresh Drosophila SFM without antibiotics; this media was then removed from the cells and replaced with 6 ml fresh Drosophila SFM without antibiotics. To the transfection mix was added 4 ml Drosophila SFM without antibiotics and this was then transferred to the flask. The reagents were gently mixed by pipetting up and down and then incubated overnight at 27° C.
D.Mel-2 cells were purchased from Invitrogen (Carlsbad, Calif.) and grown in disposable 125 ml shake flasks using 50 ml volume. Cells were subcultured to 3×10^5 cells/ml twice per week in Drosophila SFM containing 5 ml/L Antibiotic-Antimycotic (100×) (Gibco, Carlsbad, Calif.). D.Mel-2 cells were seeded into a 12-well plate at a cell density of 5×10^5 cells/well and incubated overnight at 27° C. In a 12×75 mm polystyrene tube 6 μg pIB/V5-HisA/ric3, 82 μl sterile H2O and 12 μl CellFectin (Invitrogen, Carlsbad, Calif.) were added. The sample was mixed gently and incubated at room temperature for 15 minutes. While the transfection mix was incubating, media from one well of cells was removed and replaced with 1 ml fresh media without antibiotics. After 15 minutes, the media was removed from cells. To this transfection mix, 0.5 ml media (no antibiotics) was added. This solution was then added to the cells. The mixture was incubated for 48 hrs at 27° C. After 48 hrs, the cells were scraped from the plate using a cell scraper and split into 4 wells of a 6-well plate each containing 2 ml Drosophila SFM with antibiotics. Cells were allowed to attach for 1 hr at 27° C.; the media was removed and replaced with 2 ml fresh media containing 25 μg/ml Blasticidin S (Invitrogen, Carlsbad, Calif.). Cells were incubated at 27° C. for 5 days. After 5 days, the cells were scraped loose from the wells and combined into one tube. Cells were spun down at 600 rpm in a tabletop centrifuge; the media was removed and the cells were resuspended into a 50 ml shake culture in fresh Drosophila SFM containing 25 μg/ml Blasticidin S. The cells were incubated at 27° C./140 rpm. Cells were subcultured twice weekly back to cell density of 3×10^5 cells/ml. After 4 weeks the selection was cut back to 10 μg/ml Blasticidin S. After 3 months of growth under selection, a 12 well plate was seeded at 5×10^5 cells/well and cells were incubated over night at 27° C. The following reagents were added to each of three 12×75 mm polystyrene tubes: 2 μg pMT/V5-HisA/30D, 0.15 μg pCoHygro (Invitrogen, Carlsbad, Calif.) (a […] ratio of expression plasmid:selection plasmid), 89 μl sterile H2O and 12 μl CellFectin. The samples were mixed gently and incubated at room temp for 15 minutes and then transfected as described above. After 24 hrs, the media containing transfection mix was removed and replaced with 1 ml fresh media containing antibiotics. The incubation was continued at 27° C. for another 24 hrs. Cells were scraped loose from the 12-well plate (3 wells) and split into 2, 6-well plates. Cells were allowed to attach for 6 hours at which point, the media was replaced with 2 ml/well fresh media containing 200, 150, 100 or 50 μg/ml hygromycin B. The incubation was continued at 27° C.; every 4-5 days, the media was replaced with media containing hygromycin every 4-5 days. After 2 weeks of selection in the plates, the cells from the 200 μg/ml selection, were scraped loose and then gently pelleted and resuspended in 25 ml fresh media containing 200 μg/ml hygromycin B and then placed into a 125 ml shake flask.

[4] = test system: nicotinic acetylcholine receptor alpha-5 subunit (34E); format: cell-based, Drosophila melanogaster; further: key: '−' indicates a negligible current was induced; '+' indicates a small amplitude current; '++' indicates a moderate amplitude current; '++++' indicates a large amplitude current
Procedure: (§3) Xenopus laevis (Xenopus 1, Ann Arbor, Mich.; Nasco, Fort Atkinson, Wis.) were anesthetized by bathing in a solution of 2 g/l tricaine methane sulfonate, and oocytes were surgically removed from the frog and placed in a culture solution that consisted of 96 mM NaCl, 2 mM KCl, 1.8 mM CaCl2, 1 mM MgCl2, 5 mM HEPES, 2.5 mM Na-pyruvate, 100 units/ml penicillin, and 0.1 mg/ml streptomycin, pH 7.6. Oocytes were dispersed in a nominally zero Ca^2+ protease treatment solution to defolliculate the oocytes. The protease treatment solution consisted of either 88 mM NaCl, 2.5 mM KCl, 1 mM MgCl2, 5 mM HEPES, 2.5 mM Na-pyruvate, 100 units/ml penicillin, and 0.1 mg/ml streptomycin, pH 7.6 plus 1.5 mg/ml collagenase IA (Sigma Chemical Co., St. Louis, Mo.). After isolation, the oocytes were thoroughly rinsed and returned to the above Ca^2+ containing culture solution and stored at 18° C.
(§4) Synthesis of cRNA was performed as follows: Plasmid DNA was linearized with one of the following restriction enzymes; Not I, Xho I or Nhe I. The linearized DNA was subsequently used as template for cRNA synthesis using T7 mMessage mMachine kit (Ambion, Austin, Tex.) following the manufacturer's instructions.
(§5) Micropipettes for injection of cRNA into Xenopus oocytes were pulled on a DMZ-Universal Puller (Zeitz-Instruments, München, Germany). The cRNA to be injected was drawn up into the micropipette with negative pressure. Approximately 10-50 ng of cRNA was injected into the oocytes by applying positive pressure using a Nanoject II oocyte injector (Drummond Scientific Co., Broomall, Pa.). Nucleic acid was introduced into the oocytes as follows: (1) nicotinic acetylcholine receptor alpha-6 subunit subunit (30D) (2) nicotinic alpha-7 receptor subunit (34E); (3) nicotinic acetylcholine receptor alpha-6 subunit and C. elegans ric-3 (30D and ric-3); (4) nicotinic alpha-7 receptor subunit and C. elegans ric-3 (34E and ric-3); (5) nicotinic acetylcholine receptor alpha-6 subunit and nicotinic alpha-7 receptor subunit (30D and 34E); and, (6) nicotinic acetylcholine receptor alpha-6 subunit, nicotinic alpha-7 receptor subunit and C. elegans ric-3 (30D, 34E and ric-3).
(§6) The control external solution for voltage clamp recordings consisted of 88 mM NaCl, 1 mM KCl, 0.41 mM CaCl2, 2.4 mM NaHCO3, 0.3 mM Ca(NO3)2, 0.82 mM MgSO4.7H2O, and 15 mM HEPES, pH 7.6. The recording chamber was continuously perfused with a gravity-fed perfusion system. Nicotine (1 mM) was added to the external solution and then added to the perfusate for 30 seconds. Then, nicotine was washed from the external solution a minimum of 10 minutes. Thereafter, spinosyn A was dissolved in dimethylsulfoxide (DMSO) and then dissolved in the external solution at a final concentration of 10 μM and then added to the perfusate for 60 seconds. Then, the spinosyn A was washed from the external solution. The final concentration of DMSO never exceeded 0.1% (v/v).

[5] = test system: nicotinic acetylcholine receptor alpha-6 subunit (30D); format: cell-based, Drosophila melanogaster; further: key: '−' indicates a negligible current was induced; '+' indicates a small amplitude current; '++' indicates a moderate amplitude current; '++++' indicates a large amplitude current
Procedure: as §3, §4, §5, §6

34E/ric-3 = format: cell-based, Drosophila melanogaster; further: key: '−' indicates a negligible current was induced; '+' indicates a small amplitude current; '++' indicates a moderate amplitude current; '++++' indicates a large amplitude current
Procedure: as §3, §4, §5, §6

Dα6-nicotinic receptor = format: binding, Drosophila melanogaster
Procedure: Xenopus oocytes were injected as previously described for the electrophysiological assay and were used intact for binding assays.
Two main radioligands were used in binding assays: the conventional α7 radioligand, [^3]methyllycaconitine (MLA) and [^3]dihydrospinosyn A (DHSA). For both radioligands, the Binding Buffer used consisted of 10 mM sodium phosphate (7.2-7.4). All experiments using D.Mel-2 cell suspensions were carried out with 50 μl of cell suspension. For Xenopus oocyte binding assays, oocytes were pooled (2-5 oocytes) and transferred to 1 ml Binding Buffer. This was followed by gently aspirating the Binding Buffer and replacing with fresh Binding Buffer twice, to wash out any residual oocyte bathing media. The final volume of buffer added to each pool of oocytes was 50-100 μl. […] Subsequent dilutions were made in Binding Buffer. The final concentration of solvent was maintained at less than 0.1% in each well. […] For the cell extracts, bound radioactivity and free radioactivity fractions were separated by gentle vacuum through GF/C glass fiber filter mats using a TomTec (CT) 96-well cell harvester. […] Filter mats were dried in an oven at 60° C. and the radioactivity from samples was counted for three minutes with a Wallac MicroBeta Counter (Wallac, Conn.) using Meltilex solid-scintillant (PerkinElmer, Finland). […]

30D/ric-3 = format: cell-based, Drosophila melanogaster; conditions: spinosyn A 10 μM for 60 seconds, oocytes clamped to −60 mV, peak current
Procedure: as §3, §4, §5, §6

34E/30D/ric-3 = format: cell-based, Drosophila melanogaster; set-up: key to the marks not given beside the values; conditions: spinosyn A 10 μM for 60 seconds, oocytes clamped to −60 mV, peak current
Procedure: as §3, §4
(§7) Micropipettes for injection of cRNA into Xenopus oocytes were pulled on a DMZ-Universal Puller (Zeitz-Instruments, München, Germany). […]

34E/30D = format: cell-based, Drosophila melanogaster; set-up: key to the marks not given beside the values; conditions: spinosyn A 10 μM for 60 seconds, oocytes clamped to −60 mV, peak current
Procedure: as §3, §4, §7

[6] = D.Mel-2 cells expressing D α6 and C. elegans ric3
Wherever Spinosyn A Response is given: key: '−' indicates a negligible current was induced; '+' indicates a small amplitude current; '++' indicates a moderate amplitude current; '++++' indicates a large amplitude current.

Molecule: 21-butenyl spinosyn
- mortality [1]: no significant mortality
- resistance of spinosyn A resistant flies compared to wild-type flies (based on LD50) [1]: > 100 fold
- mortality [2]: all wild-type flies exhibited mortality

Molecule: CCN1C[C@]2(COC(=O)c3ccccc3N3C(=O)C[C@H](C)C3=O)CC[C@H](OC)[C@@]34[C@@H]5C[C@H]6[C@H](OC)[C@@H]5[C@](O)(C[C@@H]6OC)[C@@](O)([C@@H](OC)[C@H]23)[C@@H]14 [MLA, methyllycaconitine]
- displacement of [3H]DHSA binding [3, 6]: can be demonstrated at higher concentrations
- overall affinity for this receptor complex ([3]; [3H]DHSA binding assay, D.Mel-2 cells): relatively poor

Molecule: CN1CCCC1c1cccnc1 (centres unmarked) [Nicotine, nicotine]
- displacement of [3H]DHSA binding [3]: displacement
- Nicotine Response [4]: +
- Nicotine Response [5]: −
- Nicotine Response (34E/ric-3): +
- % Displacement of Total Binding (Dα6-nicotinic receptor): 72%

Molecule: CC[C@H]1CCC[C@H](O[C@H]2CC[C@H](N(C)C)[C@@H](C)O2)[C@@H](C)C(=O)C2=C[C@@H]3[C@@H](C=C[C@@H]4C[C@@H](O[C@@H]5O[C@@H](C)[C@H](OC)[C@@H](OC)[C@H]5OC)C[C@@H]34)[C@@H]2CC(=O)O1 [Spinosyn A, spinosyn A]
- displacement of [3H]DHSA binding [3, 6]: significant displacement
- Spinosyn A Response (30D/ric-3): +
- Spinosyn A Response ([4]; 34E, spinosyn A 10 μM for 60 seconds, oocytes clamped to −60 mV, peak current): −
- Spinosyn A Response ([5]; 30D, spinosyn A 10 μM for 60 seconds, oocytes clamped to −60 mV, peak current): −
- Spinosyn A Response (34E/ric-3; 34E/ric-3, spinosyn A 10 μM for 60 seconds, oocytes clamped to −60 mV, peak current): −
- % Displacement of Total Binding (Dα6-nicotinic receptor; 10 μM, [3H]MLA, intact Xenopus oocytes 3 days post-injection with Dmα6): 72%
- mortality [1]: no significant mortality
- resistance of spinosyn A resistant flies compared to wild-type flies (based on LD50) [1]: at least 100 fold
- Spinosyn A Response (34E/30D/ric-3): ++++
- Spinosyn A Response (34E/30D): ++
- mortality [2]: all wild-type flies exhibited mortality

Molecule: C[N+](C)(C)CCOC(N)=O.[Cl-] [carbamylcholine]
- displacement of [3H]DHSA binding [3, 6]: did not significantly displace

Molecule: CC[C@H]1CCC[C@H](O[C@H]2CC[C@H](N(C)C)[C@@H](C)O2)[C@@H](C)C(=O)C2=C[C@H]3[C@@H]4C[C@H](O[C@@H]5O[C@@H](C)[C@H](OC)[C@@H](OC)[C@H]5OC)C[C@H]4CC[C@H]3[C@@H]2CC(=O)O1 [dihydrospinosyn A]
- displacement of [3H]DHSA binding [3, 6]: significant displacement

Molecule: Clc1ccc(C2CC3CCC2N3)cn1 (centres unmarked) [epibatidine]
- displacement of [3H]DHSA binding [3, 6]: did not significantly displace

Molecule: NS(=O)(=O)c1cc(C(=O)O)c(NCc2ccco2)cc1Cl [furosemide]
- displacement of [3H]DHSA binding [3]: No significant displacement

Molecule: O=[N+]([O-])NC1=NCCN1Cc1ccc(Cl)nc1 [imidacloprid]
- displacement of [3H]DHSA binding [3, 6]: did not significantly displace

Molecule: CN1[C@@H](CC(=O)c2ccccc2)CCC[C@H]1C[C@H](O)c1ccccc1 [lobeline]
- displacement of [3H]DHSA binding [3, 6]: did not significantly displace

Molecule: CC[C@H]1CCC[C@H](O)[C@@H](C)C(=O)C2=C[C@@H]3[C@@H](C=C[C@@H]4C[C@@H](O[C@@H]5O[C@@H](C)[C@H](OC)[C@@H](OC)[C@H]5OC)C[C@@H]34)[C@@H]2CC(=O)O1 [pseudoagylcone of spinosyn A]
- displacement of [3H]DHSA binding [3, 6]: Nor was there significant displacement

Molecule: C[C@H](O)[C@H](O)[C@@H](O)[C@@H](O)C=O [rhamnose]
- displacement of [3H]DHSA binding [3, 6]: No significant displacement

Molecule: CN1COCN(Cc2cnc(Cl)s2)/C1=N\[N+](=O)[O-] [thiamethoxam]
- displacement of [3H]DHSA binding [3, 6]: did not significantly displace

Molecule: alpha-bungarotoxin
- displacement of [3H]DHSA binding [3]: can be demonstrated at higher concentrations
- overall affinity for this receptor complex [3]: relatively poor
